Assay results from patent publication US20220187282A1, “CARDIOMYOCYTE PROLIFERATION” (The Council of the Queensland Institute of Medical Research, priority 2019, published 2022).

Key:
Format in all cases: biochemical
kinases [1] = molecular target: kinases (Homo sapiens, UniProt P37173); conditions: TGFBR2 FRET-Lantha SP; Test Conc(μM) 1
kinases [2] = molecular target: kinases (Homo sapiens, UniProt Q08345); conditions: DDR1 FRET-Lantha SP; Test Conc(μM) 1
kinases [3] = molecular target: kinases (Homo sapiens, UniProt Q14012); conditions: CAMK1 (CaMK1) FRET-Adapta SP; Test Conc(μM):ATP Conc(μM) 1:10
kinases [4] = molecular target: kinases (Homo sapiens, UniProt Q05513); conditions: PRKCZ (PKC zeta) Z-Lyte SP; Test Conc(μM):ATP Conc(μM) 1:5
kinases [5] = molecular target: kinases (Homo sapiens, UniProt Q8NEB9); conditions: PIK3C3 (hVPS34) *Mn* Adapta SP; Test Conc(μM):ATP Conc(μM) 1:10
Sequence of kinases (Homo sapiens, UniProt Q8NEB9) (Q8NEB9 whole entry): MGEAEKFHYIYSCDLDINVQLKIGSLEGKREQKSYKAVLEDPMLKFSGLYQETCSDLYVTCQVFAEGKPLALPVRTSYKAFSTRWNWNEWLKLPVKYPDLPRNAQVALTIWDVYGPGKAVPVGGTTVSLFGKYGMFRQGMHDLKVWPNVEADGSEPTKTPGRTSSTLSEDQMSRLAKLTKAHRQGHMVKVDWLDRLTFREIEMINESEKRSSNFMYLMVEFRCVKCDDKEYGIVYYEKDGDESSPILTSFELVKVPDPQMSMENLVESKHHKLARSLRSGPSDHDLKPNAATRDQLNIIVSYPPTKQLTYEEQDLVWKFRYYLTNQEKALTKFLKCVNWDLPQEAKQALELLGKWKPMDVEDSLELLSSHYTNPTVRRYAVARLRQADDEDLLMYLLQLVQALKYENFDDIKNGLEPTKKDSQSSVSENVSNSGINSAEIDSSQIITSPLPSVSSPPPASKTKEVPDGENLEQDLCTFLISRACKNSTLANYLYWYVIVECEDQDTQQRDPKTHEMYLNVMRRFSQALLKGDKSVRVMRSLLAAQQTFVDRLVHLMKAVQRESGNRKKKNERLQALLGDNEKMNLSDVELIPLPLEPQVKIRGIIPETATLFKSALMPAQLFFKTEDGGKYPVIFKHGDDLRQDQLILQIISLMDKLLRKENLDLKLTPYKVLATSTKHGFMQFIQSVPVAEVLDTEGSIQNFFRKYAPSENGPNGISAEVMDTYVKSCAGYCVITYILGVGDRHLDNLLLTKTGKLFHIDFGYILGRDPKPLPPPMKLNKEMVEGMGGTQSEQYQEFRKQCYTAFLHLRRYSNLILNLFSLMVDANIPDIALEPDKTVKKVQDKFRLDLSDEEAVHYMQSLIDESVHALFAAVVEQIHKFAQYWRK

kinases [6] = molecular target: kinases (Homo sapiens, UniProt P54756); conditions: EPHA5 FRET-Z-Lyte SP; Test Conc(μM):ATP Conc(μM) 1:150
Sequence of kinases (Homo sapiens, UniProt P54756) (P54756 25-1037): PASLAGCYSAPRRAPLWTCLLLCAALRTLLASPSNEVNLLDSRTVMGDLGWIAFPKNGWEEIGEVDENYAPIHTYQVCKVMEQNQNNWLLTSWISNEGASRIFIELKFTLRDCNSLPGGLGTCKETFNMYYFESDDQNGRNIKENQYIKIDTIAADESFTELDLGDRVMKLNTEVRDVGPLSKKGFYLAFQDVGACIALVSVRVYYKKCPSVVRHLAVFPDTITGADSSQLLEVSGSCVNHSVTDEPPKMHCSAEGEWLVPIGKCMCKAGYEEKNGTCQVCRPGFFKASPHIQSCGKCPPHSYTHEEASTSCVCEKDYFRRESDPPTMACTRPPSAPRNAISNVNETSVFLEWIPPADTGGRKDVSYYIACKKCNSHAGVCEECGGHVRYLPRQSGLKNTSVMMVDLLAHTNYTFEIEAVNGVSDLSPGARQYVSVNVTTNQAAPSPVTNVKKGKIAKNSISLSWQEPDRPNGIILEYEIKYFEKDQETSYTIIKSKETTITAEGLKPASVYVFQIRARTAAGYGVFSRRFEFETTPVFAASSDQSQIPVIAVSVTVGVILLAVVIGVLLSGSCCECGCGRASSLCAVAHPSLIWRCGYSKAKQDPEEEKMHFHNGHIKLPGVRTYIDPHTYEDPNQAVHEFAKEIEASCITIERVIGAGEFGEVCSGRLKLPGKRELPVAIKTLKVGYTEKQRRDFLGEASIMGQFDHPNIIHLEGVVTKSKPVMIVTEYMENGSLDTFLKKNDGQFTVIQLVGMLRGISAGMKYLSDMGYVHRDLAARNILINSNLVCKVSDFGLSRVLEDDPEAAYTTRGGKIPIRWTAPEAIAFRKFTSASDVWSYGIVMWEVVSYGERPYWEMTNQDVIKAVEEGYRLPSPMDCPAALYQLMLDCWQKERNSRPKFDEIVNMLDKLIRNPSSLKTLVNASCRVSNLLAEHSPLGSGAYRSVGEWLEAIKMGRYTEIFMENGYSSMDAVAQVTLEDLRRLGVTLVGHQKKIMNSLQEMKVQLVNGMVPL

kinases [7] = molecular target: kinases (Homo sapiens, UniProt P19525); conditions: EIF2AK2 (PKR) FRET-Lantha SP; Test Conc(μM) 1
Sequence of kinases (Homo sapiens, UniProt P19525) (P19525 whole entry): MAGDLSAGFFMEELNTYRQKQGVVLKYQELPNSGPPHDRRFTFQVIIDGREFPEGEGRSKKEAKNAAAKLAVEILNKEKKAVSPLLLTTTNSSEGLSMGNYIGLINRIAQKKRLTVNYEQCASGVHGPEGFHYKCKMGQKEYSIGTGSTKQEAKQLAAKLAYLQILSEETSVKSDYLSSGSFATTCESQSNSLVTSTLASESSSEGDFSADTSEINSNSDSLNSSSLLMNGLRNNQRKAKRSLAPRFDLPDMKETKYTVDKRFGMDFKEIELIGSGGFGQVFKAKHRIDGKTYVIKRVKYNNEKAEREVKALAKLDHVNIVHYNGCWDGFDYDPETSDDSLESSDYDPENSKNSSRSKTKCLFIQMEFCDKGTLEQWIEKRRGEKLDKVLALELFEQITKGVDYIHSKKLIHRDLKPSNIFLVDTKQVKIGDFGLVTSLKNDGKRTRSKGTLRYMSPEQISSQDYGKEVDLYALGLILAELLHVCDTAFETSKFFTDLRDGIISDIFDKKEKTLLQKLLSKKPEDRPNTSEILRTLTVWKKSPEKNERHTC

kinases [8] = molecular target: kinases (Homo sapiens, UniProt O75460); conditions: ERN1 FRET-Lantha SP; Test Conc(μM) 1
kinases [9] = molecular target: kinases (Homo sapiens, UniProt Q8WTQ7); conditions: GRK7 FRET-Z-Lyte SP; Test Conc(μM):ATP Conc(μM) 1:10
kinases [10] = molecular target: kinases (Homo sapiens, UniProt O60331); conditions: Test Conc(μM):ATP Conc(μM) 1:10
kinases [11] = molecular target: kinases (Homo sapiens, UniProt Q8IVH8); conditions: MAP4K3 (GLK) FRET-Lantha SP; Test Conc(μM) 1
kinases [12] = molecular target: kinases (Homo sapiens, UniProt Q8TDC3); conditions: BRSK1 (SAD1) FRET-Z-Lyte SP; Test Conc(μM):ATP Conc(μM) 1:25
kinases [13] = molecular target: kinases (Homo sapiens, UniProt P41279); conditions: MAP3K8 (COT) Cascade Z-Lyte SP; Test Conc(μM):ATP Conc(μM) 1:100
kinases [14] = molecular target: kinases (Homo sapiens, UniProt Q9UQB9); conditions: AURKC (Aurora C) Z-Lyte SP; Test Conc(μM):ATP Conc(μM) 1:25
kinases [15] = molecular target: kinases (Homo sapiens, UniProt P32298); conditions: GRK4 FRET-Z-Lyte SP; Test Conc(μM):ATP Conc(μM) 1:10
Sequence of kinases (Homo sapiens, UniProt P32298) (P32298 whole entry): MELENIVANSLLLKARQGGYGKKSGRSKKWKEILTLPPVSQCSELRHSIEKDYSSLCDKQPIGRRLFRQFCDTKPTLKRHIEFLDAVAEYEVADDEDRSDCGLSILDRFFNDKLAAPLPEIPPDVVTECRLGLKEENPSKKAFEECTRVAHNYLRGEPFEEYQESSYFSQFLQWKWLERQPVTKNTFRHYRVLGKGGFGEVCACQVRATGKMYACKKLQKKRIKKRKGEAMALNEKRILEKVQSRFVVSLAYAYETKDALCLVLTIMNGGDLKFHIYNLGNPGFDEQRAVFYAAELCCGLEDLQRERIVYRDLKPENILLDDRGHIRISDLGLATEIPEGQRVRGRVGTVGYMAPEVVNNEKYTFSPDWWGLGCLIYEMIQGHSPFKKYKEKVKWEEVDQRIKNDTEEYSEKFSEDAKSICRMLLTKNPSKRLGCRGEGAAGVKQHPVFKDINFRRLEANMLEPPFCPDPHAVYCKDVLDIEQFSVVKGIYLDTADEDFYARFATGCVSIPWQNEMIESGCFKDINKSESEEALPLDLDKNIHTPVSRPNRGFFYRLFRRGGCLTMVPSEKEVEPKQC

kinases [16] = molecular target: kinases (Homo sapiens, UniProt Q92918); conditions: MAP4K1 (HPK1) FRET-Lantha SP; Test Conc(μM) 1
kinases [17] = molecular target: kinases (Homo sapiens, UniProt Q99755); conditions: PIP5K1A FRET-Adapta SP; Test Conc(μM):ATP Conc(μM) 1:10
kinases [18] = molecular target: kinases (Homo sapiens, UniProt P51813); conditions: BMX FRET-Z-Lyte SP; Test Conc(μM):ATP Conc(μM) 1:100
kinases [19] = molecular target: kinases (Homo sapiens, UniProt O94768); conditions: STK17B (DRAK2) FRET-Lantha SP; Test Conc(μM) 1
kinases [20] = molecular target: kinases (Homo sapiens, UniProt Q08881); conditions: ITK FRET-Z-Lyte SP; Test Conc(μM):ATP Conc(μM) 1:5
kinases [21] = molecular target: kinases (Homo sapiens, UniProt P30291); conditions: WEE1 FRET-Lantha SP; Test Conc(μM) 1
Sequence of kinases (Homo sapiens, UniProt P30291) (P30291 whole entry): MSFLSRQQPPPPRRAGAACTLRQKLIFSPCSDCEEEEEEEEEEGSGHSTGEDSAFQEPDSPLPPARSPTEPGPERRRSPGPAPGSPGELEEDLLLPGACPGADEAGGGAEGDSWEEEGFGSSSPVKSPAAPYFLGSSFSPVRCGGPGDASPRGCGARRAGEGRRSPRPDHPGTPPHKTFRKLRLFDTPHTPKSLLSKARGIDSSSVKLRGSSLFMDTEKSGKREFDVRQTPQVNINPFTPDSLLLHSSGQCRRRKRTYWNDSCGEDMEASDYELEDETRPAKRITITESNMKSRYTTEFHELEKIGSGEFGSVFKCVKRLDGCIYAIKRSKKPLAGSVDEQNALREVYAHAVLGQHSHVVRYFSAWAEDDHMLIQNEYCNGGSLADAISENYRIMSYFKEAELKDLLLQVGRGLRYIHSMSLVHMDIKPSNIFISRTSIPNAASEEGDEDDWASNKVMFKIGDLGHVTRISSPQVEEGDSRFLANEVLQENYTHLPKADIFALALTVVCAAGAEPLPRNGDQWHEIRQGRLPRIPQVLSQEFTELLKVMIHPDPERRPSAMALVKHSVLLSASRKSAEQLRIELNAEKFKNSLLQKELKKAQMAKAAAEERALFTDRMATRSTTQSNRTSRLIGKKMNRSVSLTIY

kinases [22] = molecular target: kinases (Homo sapiens, UniProt O95819); conditions: MAP4K4 (HGK) FRET-Z-Lyte SP; Test Conc(μM):ATP Conc(μM) 1:10
Sequence of kinases (Homo sapiens, UniProt O95819) (O95819 whole entry): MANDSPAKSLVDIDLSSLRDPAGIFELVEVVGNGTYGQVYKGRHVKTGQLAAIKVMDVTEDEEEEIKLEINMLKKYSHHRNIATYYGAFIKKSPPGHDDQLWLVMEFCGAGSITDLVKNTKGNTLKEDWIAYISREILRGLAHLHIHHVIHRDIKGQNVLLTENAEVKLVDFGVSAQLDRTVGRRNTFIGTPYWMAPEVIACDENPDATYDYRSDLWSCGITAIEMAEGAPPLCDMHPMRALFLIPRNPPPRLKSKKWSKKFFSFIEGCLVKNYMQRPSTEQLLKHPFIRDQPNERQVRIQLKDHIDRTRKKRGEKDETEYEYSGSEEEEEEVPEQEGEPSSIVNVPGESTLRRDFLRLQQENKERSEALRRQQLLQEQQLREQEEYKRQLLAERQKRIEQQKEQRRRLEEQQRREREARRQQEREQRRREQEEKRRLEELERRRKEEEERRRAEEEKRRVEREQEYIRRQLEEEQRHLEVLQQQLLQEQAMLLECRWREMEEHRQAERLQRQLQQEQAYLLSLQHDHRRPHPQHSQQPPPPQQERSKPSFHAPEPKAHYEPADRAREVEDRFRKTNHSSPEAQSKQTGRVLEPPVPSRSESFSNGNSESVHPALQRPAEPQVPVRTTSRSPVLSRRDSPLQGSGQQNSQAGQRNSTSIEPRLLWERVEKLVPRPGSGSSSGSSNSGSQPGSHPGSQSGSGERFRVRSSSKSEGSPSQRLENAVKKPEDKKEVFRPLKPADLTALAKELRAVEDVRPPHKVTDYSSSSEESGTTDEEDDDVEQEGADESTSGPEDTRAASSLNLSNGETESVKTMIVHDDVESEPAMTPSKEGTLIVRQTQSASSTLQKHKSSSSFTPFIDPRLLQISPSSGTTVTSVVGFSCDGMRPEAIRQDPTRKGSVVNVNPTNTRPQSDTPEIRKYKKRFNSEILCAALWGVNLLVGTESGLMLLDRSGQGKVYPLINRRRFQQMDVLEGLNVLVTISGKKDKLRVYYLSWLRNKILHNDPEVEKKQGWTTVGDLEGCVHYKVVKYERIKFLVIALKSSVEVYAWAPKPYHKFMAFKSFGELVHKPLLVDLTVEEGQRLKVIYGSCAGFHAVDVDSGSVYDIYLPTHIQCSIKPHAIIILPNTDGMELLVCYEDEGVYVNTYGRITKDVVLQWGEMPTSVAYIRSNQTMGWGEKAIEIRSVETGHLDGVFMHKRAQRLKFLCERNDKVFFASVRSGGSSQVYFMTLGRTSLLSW

kinases [23] = molecular target: kinases (Homo sapiens, UniProt P29376); conditions: LTK (TYK1) FRET-Z-Lyte SP; Test Conc(μM):ATP Conc(μM) 1:75
kinases [24] = molecular target: kinases (Homo sapiens, UniProt P54760); conditions: EPHB4 FRET-Z-Lyte SP; Test Conc(μM):ATP Conc(μM) 1:100
kinases [25] = molecular target: kinases (Homo sapiens, UniProt P41743); conditions: PRKCI (PKC iota) Z-Lyte SP; Test Conc(μM):ATP Conc(μM) 1:25
kinases [26] = molecular target: kinases (Homo sapiens, UniProt P14616); conditions: INSRR (IRR) *Mn* Z-Lyte SP; Test Conc(μM):ATP Conc(μM) 1:50
kinases [27] = molecular target: kinases (Homo sapiens, UniProt Q96SB4); conditions: SRPK1 FRET-Z-Lyte SP; Test Conc(μM):ATP Conc(μM) 1:25
kinases [28] = molecular target: kinases (Homo sapiens, UniProt P51957); conditions: NEK4 FRET-Z-Lyte SP; Test Conc(μM):ATP Conc(μM) 1:50

Row | SMILES | Mean Inhib (%) (kinases [1]) | Mean Inhib (%) (kinases [2]) | Mean Inhib (%) (kinases [3]) | Mean Inhib (%) (kinases [4]) | Mean Inhib (%) (kinases [5]) | Mean Inhib (%) (kinases [6]) | Mean Inhib (%) (kinases [7]) | Mean Inhib (%) (kinases [8]) | Mean Inhib (%) (kinases [9]) | Mean Inhib (%) (kinases [11]) | Mean Inhib (%) (kinases [12]) | Mean Inhib (%) (kinases [13]) | Mean Inhib (%) (kinases [14]) | Mean Inhib (%) (kinases [15]) | Mean Inhib (%) (kinases [16]) | Mean Inhib (%) (kinases [17]) | Mean Inhib (%) (kinases [18]) | Mean Inhib (%) (kinases [19]) | Mean Inhib (%) (kinases [20]) | Mean Inhib (%) (kinases [21]) | other results
1 | Cc1ccc(NC(=O)c2ccnc(N3CCOCC3)c2)cc1Nc1ccnc(N2CC(C)OC(C)C2)n1 (centres unmarked) [compound 3] | −3.5 | 82.4 | −9.9 | 12.0 | 3.5 | 6.7 | 2.8 | −3.4 | 4.6 | 7.7 | 2.2 | 6.1 | 9.3 | 0.0 | −1.6 | −2.9 | 7.2 | 4.7 | 6.1 | 4.6 | Mean Inhib (%) (kinases [10]; PIP5K1C FRET-Adapta SP): −4.5%; Mean Inhib (%) (kinases [22]): 16.9%; Mean Inhib (%) (kinases [23]): −6.4%; Mean Inhib (%) (kinases [24]): 1.4%; Mean Inhib (%) (kinases [25]): −0.2%; Mean Inhib (%) (kinases [26]): 13.5%; Mean Inhib (%) (kinases [27]): 7.6%; Mean Inhib (%) (kinases [28]): 14.2%
2 | Cc1cc(Oc2ccnc(Nc3ccc(S(N)(=O)=O)cc3)c2)c(-c2ccccn2)nc1C [compound 65] | 67.0 | 1.7 | 7.3 | −22.4 | 1.1 | 65.2 | 3.6 | 1.0 | 8.3 | 14.0 | 4.7 | 21.2 | 4.2 | 16.3 | 11.3 | 2.4 | 18.7 | 2.0 | −6.9 | 1.2 | PIP5K1C FRET-Adapta SP Mean Mean Inhib (%) (kinases [10]; PIP5K1C): 3.2%; Mean Inhib (%) (kinases [22]): 12.0%; Mean Inhib (%) (kinases [23]): −3.9%; Mean Inhib (%) (kinases [24]): 58.1%; Mean Inhib (%) (kinases [25]): 9.7%; Mean Inhib (%) (kinases [26]): 5.5%; Mean Inhib (%) (kinases [27]): 2.9%; Mean Inhib (%) (kinases [28]): 3.6%
